Consider 13 compounds from patent publication EP0209274A2, “Furanone derivatives” (ELI LILLY AND COMPANY, priority 1985, dated 1987).

The target of the experiment is T1, 5-Lipoxygenase (Cavia porcellus, UniProt A0A286X958).
T1 construct: The PMNL suspension was disrupted by five ½-second pulse sonication; from tissue; host or cells: guinea pig peritoneal polymorphonuclear leukocytes (30,000 x g supernatant of the sonicate)
T1 sequence (A0A286X958 1-674): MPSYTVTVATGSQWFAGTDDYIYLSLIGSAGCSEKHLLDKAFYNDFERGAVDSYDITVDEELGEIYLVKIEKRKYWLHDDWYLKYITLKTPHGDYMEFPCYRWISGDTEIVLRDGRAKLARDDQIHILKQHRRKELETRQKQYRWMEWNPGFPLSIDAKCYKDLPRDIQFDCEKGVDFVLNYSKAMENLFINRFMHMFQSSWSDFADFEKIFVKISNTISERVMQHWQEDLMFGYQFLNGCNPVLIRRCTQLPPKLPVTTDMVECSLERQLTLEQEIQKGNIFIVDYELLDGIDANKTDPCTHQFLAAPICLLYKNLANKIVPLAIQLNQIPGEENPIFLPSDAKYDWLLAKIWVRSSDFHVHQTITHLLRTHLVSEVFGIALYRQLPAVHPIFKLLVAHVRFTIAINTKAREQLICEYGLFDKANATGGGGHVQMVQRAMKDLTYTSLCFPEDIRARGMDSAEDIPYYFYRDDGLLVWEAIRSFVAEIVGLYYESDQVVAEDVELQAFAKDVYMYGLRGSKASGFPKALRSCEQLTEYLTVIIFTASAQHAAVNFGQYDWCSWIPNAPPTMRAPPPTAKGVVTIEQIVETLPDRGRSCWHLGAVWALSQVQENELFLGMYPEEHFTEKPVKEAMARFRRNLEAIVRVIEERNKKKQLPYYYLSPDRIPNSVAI
Briefly: 5-Lipoxygenase (5-LPO) Assay. The format is biochemical, guinea pigs. To be noted: inhibition of 5-HETE formation; supernatant of guinea pig PMNL sonicate; read-out: 5-LPO IC50 (µg/ml) (converted). The protocol:
Ten milliliters of a 2% casein solution were injected intraperitoneally to guinea pigs weighing 250-300 gm. After 16-18 hours, the guinea pigs were killed by suffocation in a carbon dioxide chamber. The peritoneal cavity was infused with 70 ml of saline and 40-50 ml of the fluid were recovered from the cavity. After centrifugation, cell pellets were washed twice in Hank's balanced salt solution (HBSS) without calcium ion.
The cells were then suspended in 5 ml of sodium phosphate buffer, pH 7.1 containing 1 mM EDTA, and 0.1% gelatin. About 20-30 x 10^7 cells were obtained from one guinea pig.
The PMNL suspension was disrupted by five ½-second pulse sonication at the setting of 3 in a Branson Sonifier, Model 350, equipped with a microtip. The sonicates were combined and centrifuged at 30,000 x g for 10 minutes. The supernatant was kept frozen at -70°C until use.
. Enzyme activity was determined by assaying for 5-HETE formatiun by first incubating 0.2 ml of the supernatant obtained from the PMNL sonicate with the test compound, 1 mM CaCl2, 2 mM ATP, and 1 mM GSH for 5 minutes at 37°C. The mixture is treated with 5 pM ^14C-arachidonic acid and incubated at 37°C an additional 10 minutes. The enzyme reaction was then stopped by the addition of 10 µl of 1M citric acid and 10 µl of an alcohol solution containing 20 mg/ml each of indomethacin and butylated hydroxyanisole (BHA). The reaction mixture was spotted (50 µl) on a silica gel plate (Baker TLC plate S1250-PA-19C) and subjected to TLC in a solvent system of ethyl acetate/2,2,4-tri- methylpentane/glacial acetic acid/H20 (90:50:20:100).
The radioactivity of the arachidonic acid and its metabolites (5-HETE and LTB4) was visualized from a developed x-ray film which had been exposed to the TLC plate 1-2 days. The amount of 5-HETE formed was quanti- tated by scraping the silica gel area corresponding to the spot on the x-ray film, and the radioactivity determined in a Isocap/300 liquid scintillation counter (Searle Analytic, Inc.).
The percent inhibition of the formation of 5-HETE was determined for each concentration of test compound tested as compared to a control experiment wherein no test compound was added. The concentration and percent inhibition values were plotted on semi log paper and the concentration in which formation of 5-HETE is inhibited by 50% (ICso) was determined by interpolation.

On to `CC/C=C\C/C=C\C/C=C\C/C=C\C/C=C\C/C=C\CC1=CC(=O)OC1O` (stereo not shown) [Example 9, (Z,Z,Z,Z,Z,Z)-4-(2,5,8,11,14,17-eicosa-hexaenyl)-5-hydroxy-2(5H)-furanone], for which the IC50 is 2.17 to 16.3 µM.

As for `O=C1C=C(CCCCOc2ccc3ccccc3c2)C(O)O1` (stereo not shown) [Example 12, 5-Hydroxy-4-[4-(2-naphthalenyloxy)butyl]-2(5H)-furanone], the IC50 is 16.8 to 40.2 µM.

Consider `O=C1C=C(CCCCCOc2ccccc2Cc2ccccc2)C(O)O1` (stereo not shown) [Example 18, 5-Hydroxy-4-[5-(2-benzylphenoxy)pentyl]-2(5H)-furanone], for which the IC50 was 28.4 µM.

As to `CCCCC/C=C\C/C=C\C/C=C\CCCC1=CC(=O)OC1O` (stereo not shown) [Example 5, (Z,Z,Z)-4-(4,7,10-hexadecatrienyl)-5-hydroxy-2(5H)-furanone], the IC50 was 1.57 to 4.71 µM.

Take `CCCCC/C=C\C/C=C\C/C=C\C/C=C\CCC1=CC(=O)OC1O` (stereo not shown) [Example 3, (Z,Z,Z,Z)-5-hydroxy-4-(3,6,9,12-octa-decatetraenyl)-2(5H)-furanone]: the IC50 was 0.435 to 1.16 µM.

In the case of `CC/C=C\C/C=C\C/C=C\CCCCCCC1=CC(=O)OC1O` (stereo not shown) [Example 2, (Z,Z,Z)-4-(7,10,13-hexadecatrienyl)-5-hydroxy-2(5H)-furanone], the IC50 was 0.471 to 1.88 µM.

As for `CC(C)=CCCC(C)=CCCC(=CCCC1=CC(=O)OC1O)CO` (stereo not shown) [Example 19, 5-Hydroxy-4-[4-(hydroxymethyl)-8,12-dimethyl-3,7,11-tridecatrienyl]-2(5H)-furanone], the IC50 was 4.48 µM.

Turning to `CC(C)=CCCC(C)=CCCC(C)=CCCC1=CC(=O)OC1O` (stereo not shown) [Example 13, 5-Hydroxy-4-(4,8,12-trimethyl-3,7,11-tri-decatrienyl)-2(5H)-furanone], the IC50 is 25.1 µM.

As to `CCCCCCCC/C=C\CCCCCCC1=CC(=O)OC1O` (stereo not shown) [Example 11, (Z)-4-(7-hexadecenyl)-5-hydroxy-2(5H)-furanone], the IC50 is 1.24 µM.

For `CC(C)=CCCC(C)=CCCC(C=O)=CCCC1=CC(=O)OC1O` (stereo not shown) [Example 15, 2-[3-(2,5-dihydro-2-hydroxy-5-oxo-3-furanyl)-propylidene]-6,10-dimethyl-5,9-undecadienal], the IC50 is 0.241 µM.

On to `CC(C)=CCC/C(C)=C/CCC1=CC(=O)OC1O` (stereo not shown) [Example 14, (E,E)-4-(4,8-dimethyl-3,7-nonadienyl)-5-hydroxy-2(5H)-furanone], for which the IC50 was 24 µM.

As for `CCCCCCCC/C=C/CCCCCCC1=CC(=O)OC1O` (stereo not shown) [Example 4, (E)-4-(7-hexadecenyl)-5-hydroxy-2(5H)-furanone], the IC50 was about 3.1 µM.

For `CCCCC/C=C\C/C=C\CCCCCCC1=CC(=O)OC1O` (stereo not shown) [Example 1, (Z,Z)-4-(7,10-hexadecadienyl)-5-hydroxy-2-(5H)-furanone], the IC50 was 1.25 to 3.12 µM.
